From PubChem BioAssay (NCI) come the findings set out here.

Test systems include SW-620 colon; CAKI-1 renal; RPMI-8226 leukemia; UACC-257 melanoma; TK-10 renal; SF-295 CNS; ACHN renal; NCI-H226 lung; SNB-19 CNS.
What all share (experiment): DTP human tumour cell line panel, 48 h

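All cell lines were grown in 96-well plates and treated with compound for 48 hours. GI50 = concentration required for 50% inhibition of growth. Definition used: TGI = concentration required for complete inhibition of growth.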

With `CC(=O)O[C@@H](c1nccn1Cc1ccccc1)[C@H]1OC(C)(C)O[C@@H]1[C@H]1COC(C)(C)O1`, the concentration for total growth inhibition (TGI) in the assay with SW-620 colon, in the assay with CAKI-1 renal, in the assay on RPMI-8226 leukemia, in the assay with UACC-257 melanoma, with TK-10 renal and in the assay on SF-295 CNS was above 100 µM in each case. For the same compound, the TGI with ACHN renal and in the assay on NCI-H226 lung was above 100 µM in each case.
In the case of `COc1ccc(C)cc1N1C(=O)C2ON(Cc3ccc(CC(N)=O)cc3)C(c3c4ccccc4c(Cl)c4ccccc34)C2C1=O` (configuration not stated), the TGI in the assay on SW-620 colon is above 100 µM; in the assay on CAKI-1 renal, 76.5 µM; in the assay on UACC-257 melanoma, 33.2 µM; in the assay with TK-10 renal, 49.5 µM; in the assay on SF-295 CNS, 69.1 µM; with ACHN renal, 75 µM. The TGI with SNB-19 CNS is above 100 µM.
`Cc1ccccc1-c1nc2c(N)nc(N)nc2nc1N`: the TGI in the assay with SW-620 colon, in the assay on CAKI-1 renal, with RPMI-8226 leukemia, with UACC-257 melanoma, with TK-10 renal and in the assay on SF-295 CNS was above 100 µM throughout. The TGI with ACHN renal and in the assay on SNB-19 CNS was above 100 µM each time.
In the case of `O=[N+]([O-])c1ccc(C[P+]2(c3ccccc3)CCCCC2)cc1`, the TGI in the assay with SW-620 colon, in the assay with RPMI-8226 leukemia, with UACC-257 melanoma, with TK-10 renal, with SF-295 CNS and with ACHN renal was above 100 µM throughout. The TGI in the assay on NCI-H226 lung and in the assay with SNB-19 CNS was above 100 µM throughout.
On to `O=c1oc2ccc3ccccc3c2cc1-c1cn2ccsc2n1`, for which the TGI in the assay with SW-620 colon is 46.8 µM; with CAKI-1 renal it was 59 µM; in the assay on RPMI-8226 leukemia it was 46.2 µM; with UACC-257 melanoma it was 66.1 µM; in the assay with TK-10 renal it was 33.9 µM; in the assay on SF-295 CNS, above 100 µM. For the same compound, the values for the TGI in the assay with ACHN renal and with SNB-19 CNS were 32.1 µM and above 100 µM, respectively.
Consider `O=C(c1ccco1)N(C(=O)N1CCCCC1)c1ccccc1`, for which the TGI in the assay on SW-620 colon, in the assay on CAKI-1 renal, with RPMI-8226 leukemia, in the assay with UACC-257 melanoma, in the assay with TK-10 renal and in the assay on ACHN renal was above 100 µM throughout. The TGI in the assay on NCI-H226 lung and in the assay with SNB-19 CNS was above 100 µM throughout.
In the case of `COCOc1ccc(C(=O)Oc2cccc3c2OC(C)(C)O3)c(OCOC)c1`, the TGI in the assay on SW-620 colon, in the assay on CAKI-1 renal, in the assay on RPMI-8226 leukemia, in the assay on UACC-257 melanoma, in the assay on TK-10 renal and in the assay on SF-295 CNS was above 100 µM in each case. Moreover, the TGI in the assay with ACHN renal and with NCI-H226 lung was above 100 µM each time.
Regarding `Cc1nnc2n(c1=O)CCCN2C`, the TGI with SW-620 colon, in the assay on RPMI-8226 leukemia, in the assay with TK-10 renal, in the assay with SF-295 CNS, with ACHN renal and in the assay on NCI-H226 lung was above 100 µM throughout. Also, the TGI in the assay with SNB-19 CNS is above 100 µM.
As to `Cc1nc(N)c(N2CCN(C#N)CC2)c(=O)[nH]1`, the TGI in the assay on SW-620 colon, in the assay with RPMI-8226 leukemia, in the assay on UACC-257 melanoma, in the assay on TK-10 renal, in the assay with SF-295 CNS and with ACHN renal was above 100 µM in each case. Also, the TGI in the assay with NCI-H226 lung and with SNB-19 CNS was above 100 µM throughout.
Consider `COC(=O)/C=C(\C)CC/C=C(\C)CCC1OC1(C)C` (configuration not stated), for which the TGI with SW-620 colon is 28.4 µM; in the assay on CAKI-1 renal, 22.3 µM; in the assay with UACC-257 melanoma, 23.3 µM; with TK-10 renal, 22.7 µM; in the assay on SF-295 CNS, 21.3 µM; with ACHN renal, 23.3 µM. Further, the TGI was 24.8 µM with NCI-H226 lung and above 75 µM with SNB-19 CNS.
On to `O=C(/C=C/c1ccc(O)c(O)c1)OCCc1ccc2ccccc2c1`, for which the TGI in the assay on SW-620 colon is 20.7 µM; in the assay with UACC-257 melanoma, 23.3 µM; in the assay with TK-10 renal it was 20.4 µM; in the assay on SF-295 CNS, 23.7 µM; with ACHN renal, 15.1 µM; in the assay on NCI-H226 lung, 32.3 µM. Further, the TGI in the assay with SNB-19 CNS is 25.9 µM.
On to `O=C1C=CC2(O[C@H](c3ccccc3)[C@@H](c3ccccc3)O2)[C@H](Sc2ccccc2O)C1`, for which the TGI in the assay on SW-620 colon is above 100 µM; with CAKI-1 renal, 0.886 µM; in the assay with UACC-257 melanoma it was 1.71 µM; in the assay on TK-10 renal, 0.966 µM; in the assay on SF-295 CNS, 15.6 µM; in the assay with ACHN renal, 1.07 µM. In addition, the TGI is 5.43 µM with NCI-H226 lung and 3.74 µM in the assay on SNB-19 CNS.
Consider `N#Cc1c(-c2ccc([N+](=O)[O-])cc2)cc(-c2ccc(Nc3ccnc4cc(Cl)ccc34)cc2)[nH]c1=O`, for which the TGI in the assay with SW-620 colon, with CAKI-1 renal, with RPMI-8226 leukemia, in the assay on TK-10 renal, with SF-295 CNS and with ACHN renal was above 100 µM each time. Further, the TGI with NCI-H226 lung and with SNB-19 CNS was above 100 µM throughout.
With `NS(=O)(=O)c1nnc(NC(=O)N(c2ccccc2)c2ccccc2)s1`, the TGI is above 100 µM with SW-620 colon; above 100 µM in the assay on CAKI-1 renal; 49.4 µM with RPMI-8226 leukemia; above 100 µM with UACC-257 melanoma; above 100 µM with TK-10 renal; above 100 µM in the assay with SF-295 CNS. For the same compound, the TGI in the assay on NCI-H226 lung and in the assay on SNB-19 CNS was above 100 µM in each case.
With `COC(=O)[C@]1(C)CCC[C@@]2(C)C1CC[C@]13C=C(C(C)C)[C@H](CC21)CC3(Cl)C#N` (some centres not stated), the TGI with SW-620 colon, in the assay with CAKI-1 renal, with UACC-257 melanoma, in the assay on TK-10 renal, in the assay on SF-295 CNS and in the assay on ACHN renal was above 100 µM each time. The figures for the TGI in the assay with NCI-H226 lung and in the assay with SNB-19 CNS were 75.4 µM and above 100 µM, respectively.
Take `COc1cc2nc(-c3ccc(Cl)cc3)cc(OCCCN3CCOCC3)c2cc1OC`: the GI50 with SW-620 colon is 3.57 µM; in the assay with SF-295 CNS it was 1.08 µM; with ACHN renal, 3.64 µM; in the assay with NCI-H226 lung, 0.997 µM. The TGI in the assay with SW-620 colon is above 100 µM; in the assay on SF-295 CNS, 2.84 µM; in the assay with ACHN renal it was above 100 µM; in the assay with NCI-H226 lung, 4.81 µM.
For the compound `CN(C)CCn1c(=O)c2ccc(NCCCN(C)CCCNc3ccc4c(=O)n(CCN(C)C)c(=O)n5c6ccc(O)cc6c(=O)c3c45)c3c(=O)c4cc(O)ccc4n(c1=O)c23`, the TGI in the assay on CAKI-1 renal stood at 2.23 µM; in the assay with UACC-257 melanoma, 1.23 µM; in the assay on TK-10 renal it was 1.63 µM; in the assay with SF-295 CNS, 2.33 µM; in the assay with ACHN renal, 0.726 µM; in the assay with NCI-H226 lung it was 0.0488 µM. This compound also came in with a TGI in the assay with SNB-19 CNS of 1.54 µM.
